A short description of series [1]: physchem.
Description: Dissociation constant, basic pKa of the compound by UV spectrophotometry
The nature of series [2]: physchem. This is another data set of the same source.
Description: Dissociation constant, acidic pKa of the compound by UV spectrophotometry

Broadly, the pKa is the pH at which an ionisable group is half protonated. `O=S(=O)(O)Cc1ccc(Nc2c3ccccc3nc3ccccc23)cc1`: the pKa in series [1] turned out to be 7.64.
On the same count and under the same terms, the value for `O=C(O)COc1ccc(Nc2c3ccccc3nc3ccccc23)cc1` was 8.19; that for `O=S(=O)(O)CCc1ccc(Nc2c3ccccc3nc3ccccc23)cc1` was 7.77; that for `O=C(O)c1cccc(Nc2c3ccccc3nc3ccccc23)c1` was 7.62.
As for `O=C(O)c1ccc(Nc2c3ccccc3nc3ccccc23)cc1`, the pKa was 7.17 in series [1] and 4.2 in series [2].
Turning to `O=C(O)/C=C/c1ccc(Nc2c3ccccc3nc3ccccc23)cc1`, in series [1], the pKa is 7.17.
In series [1], `NC(=O)CCc1ccc(Nc2c3ccccc3nc3ccccc23)cc1` came in with a pKa of 7.63.
The same measure, in the same setting: the value for `O=C(O)CCc1ccc(Nc2c3ccccc3nc3ccccc23)cc1` was 7.91; that for `CS(=O)(=O)Nc1cccc(Nc2c3ccccc3nc3ccccc23)c1` was 6.85; that for `Cc1cccc2c(Nc3ccc(NS(C)(=O)=O)cc3)c3ccccc3nc12` was 7.15.
Same read-out and setting: the figure for `NC(=O)c1ccc(Nc2c3ccccc3nc3ccccc23)cc1` is 6.47; for `NS(=O)(=O)c1ccc(Nc2c3ccccc3nc3ccccc23)cc1` it is 6.11.
On the same count and under the same terms, the figure for `O=[N+]([O-])c1ccc(Nc2c3ccccc3nc3ccccc23)cc1` is 5.58; for `O=C(O)Cc1ccc(Nc2c3ccccc3nc3ccccc23)cc1` it is 7.92.
For `CC(=O)Nc1ccc2c(Nc3ccc(C(=O)O)cc3)c3ccccc3nc2c1`, the pKa in series [1] is 7.42.
Still for that read-out and setting: the figure for `NC(=O)Cc1ccc(Nc2c3ccccc3nc3ccccc23)cc1` is 7.43.
The same measure, in the same setting: the figure for `NS(=O)(=O)Cc1ccc(Nc2c3ccccc3nc3ccccc23)cc1` is 7.05; for `O=S(=O)(O)c1ccc(Nc2c3ccccc3nc3ccccc23)cc1` it is 6.87; for `N#Cc1ccc(Cc2c3ccccc3nc3ccccc23)cc1` it is 5.93.
On the same count and under the same terms, the value for `COc1cc(C(=O)O)ccc1Nc1c2ccccc2nc2ccccc12` was 7.41.
`Nc1ccc2c(Nc3ccc(C(=O)O)cc3)c3ccccc3nc2c1`: in series [1], the pKa is 8.9.
The same measure, in the same setting: the figure for `CS(=O)(=O)Nc1ccc(Nc2cc(N=[N+]=[N-])nc3ccccc23)cc1` is 7; for `CS(=O)(=O)Nc1ccc(Nc2c3ccccc3nc3c(C(N)=O)cccc23)cc1` it is 6.12.
The same measure, in the same setting: the value for `O=C(O)c1ccccc1Nc1c2ccccc2nc2ccccc12` was 7.28.
The same measure, in the same setting: the figure for `O=C(O)Cc1cccc(Nc2c3ccccc3nc3ccccc23)c1` is 7.82; for `O=C(O)Cc1ccccc1Nc1c2ccccc2nc2ccccc12` it is 8.12.
In turn, `NS(=O)(=O)CCc1ccc(Nc2c3ccccc3nc3ccccc23)cc1` came in with a pKa in series [1] of 7.43.
The same measure, in the same setting: the figure for `CC(=O)c1ccc(Cc2c3ccccc3nc3ccccc23)cc1` is 6.12; for `Brc1ccc(Cc2c3ccccc3nc3ccccc23)cc1` it is 7; for `Clc1ccc(Cc2c3ccccc3nc3ccccc23)cc1` it is 7.06.
The molecule `O=S(=O)(Nc1ccc(Cc2c3ccccc3nc3ccccc23)cc1)c1ccccc1` came in with a pKa in series [1] of 7.09.
Molecule `c1ccc(Cc2c3ccccc3nc3ccccc23)cc1` displayed a pKa in series [1] of 7.46.
Consider `CC(=O)Nc1ccc(Cc2c3ccccc3nc3ccccc23)cc1`, for which the pKa in series [1] was 7.51. The pKa values of the last two molecules are within 0.2 log units of each other.
Same read-out and setting: the value for `COC(=O)Nc1ccc(Cc2c3ccccc3nc3ccccc23)cc1` was 7.64.
The same measure, in the same setting: the value for `Cc1ccc(Cc2c3ccccc3nc3ccccc23)cc1` was 7.72; that for `CNC(=O)Nc1ccc(Cc2c3ccccc3nc3ccccc23)cc1` was 7.77; that for `COc1ccc(Cc2c3ccccc3nc3ccccc23)cc1` was 7.94.
The same measure, in the same setting: the value for `Nc1ccc(Cc2c3ccccc3nc3ccccc23)cc1` was 8.36.
Regarding `COc1cc(NS(C)(=O)=O)ccc1Cc1c2ccccc2nc2cc([N+](=O)[O-])ccc12`, the pKa in series [1] is 5.72.
For the molecule `COc1cc(NS(C)(=O)=O)ccc1Cc1c2ccc([N+](=O)[O-])cc2nc2cc([N+](=O)[O-])ccc12`, the pKa in series [1] worked out at 3.82.
The same measure, in the same setting: the figure for `COc1cc(NS(C)(=O)=O)ccc1Cc1c2c(nc3ccccc13)CC(=N)C=C2` is 5.53.
`COc1cc(NS(C)(=O)=O)ccc1Cc1c2c(nc3ccccc13)C(=N)CC=C2`: the pKa in series [1] stood at 6.09.
Same read-out and setting: the figure for `CS(=O)(=O)Nc1ccc(Nc2c3ccccc3nc3cc(I)ccc23)cc1` is 6.52; for `COC(=O)c1ccc(Nc2c3ccccc3nc3ccccc23)cc1` it is 6.21; for `CN(c1ccc(Nc2c3ccccc3nc3ccccc23)cc1)S(C)(=O)=O` it is 6.95.
On the same count and under the same terms, the value for `CC(=O)Nc1ccc2c(Nc3ccc(NS(C)(=O)=O)cc3)c3ccccc3nc2c1` was 7.34.
In series [1], `COc1cc(NS(C)(=O)=O)ccc1Nc1c2ccccc2nc2ccccc12` [AMSACRINE] came in with a pKa of 7.43. The pKa values of the last two molecules are within 0.2 log units of each other.
